Reference: patent US20240116985A1, “STAPLED PEPTIDES AND METHODS THEREOF” (priority 2020, published 2024)

Key:
[1] = target: T1, full-length beta-Catenin (Uniprot ID P35222) (Homo sapiens, UniProt P35222); assay: Fluorescence polarization IC50 (beta-catenin / 5FAM-TCF4 10-53 competition); assay type: binding; conditions: fluorescence polarization; read-out: beta-Catenin FP IC50
T1 construct: 10 nM full-length beta-Catenin (Uniprot ID P35222)
T1 sequence (P35222 1-781): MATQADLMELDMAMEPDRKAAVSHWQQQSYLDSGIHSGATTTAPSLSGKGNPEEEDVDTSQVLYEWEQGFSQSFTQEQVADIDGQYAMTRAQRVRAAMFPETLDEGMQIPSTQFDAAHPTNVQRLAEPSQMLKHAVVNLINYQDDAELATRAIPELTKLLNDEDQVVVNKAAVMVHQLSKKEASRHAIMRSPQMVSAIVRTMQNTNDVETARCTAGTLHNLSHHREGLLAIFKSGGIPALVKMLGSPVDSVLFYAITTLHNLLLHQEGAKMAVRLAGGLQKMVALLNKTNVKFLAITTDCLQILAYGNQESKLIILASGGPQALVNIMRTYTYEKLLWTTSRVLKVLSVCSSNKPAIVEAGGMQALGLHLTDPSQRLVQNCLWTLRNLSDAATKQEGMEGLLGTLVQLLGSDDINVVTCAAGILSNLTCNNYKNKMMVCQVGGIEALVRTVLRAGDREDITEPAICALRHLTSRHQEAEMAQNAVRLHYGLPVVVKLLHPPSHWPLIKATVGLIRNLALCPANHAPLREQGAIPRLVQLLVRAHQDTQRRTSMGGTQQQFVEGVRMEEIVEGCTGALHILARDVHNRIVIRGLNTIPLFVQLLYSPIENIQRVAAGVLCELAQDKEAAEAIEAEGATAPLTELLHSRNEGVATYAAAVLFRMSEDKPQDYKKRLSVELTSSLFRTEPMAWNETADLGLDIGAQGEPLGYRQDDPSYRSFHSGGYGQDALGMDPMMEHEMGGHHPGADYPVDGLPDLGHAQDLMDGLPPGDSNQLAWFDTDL

[2] = target: T2, beta-catenin/TCF4 engagement (Homo sapiens, UniProt P35222); assay: Nano-BRET target engagement assay (B-cat-Halo & TCF4-Luc in HEK293 cells); assay type: cell-based; conditions: absolute IC50; read-out: NanoBRET Abs IC50
T2 construct: expressed in transfected cells; host or cells: HEK293
T2 sequence (P35222 1-781): T1 sequence (P35222 1-781)

Row | IC50 [1] [nM] | IC50 [2] [µM] | SMILES
1 | 70 | 8.3 | CC(=O)N1CCC[C@]12CC=CCCCC1(CCCC=CCCCOC(=O)N3CC[C@@](C(=O)N[C@@H](Cc4ccccc4C(F)(F)F)C(=O)N[C@@H](Cc4csc5ccccc45)C(=O)N[C@@H](CO)C(N)=O)(C3)NC(=O)[C@H](CC(C)C)NC(=O)[C@H](Cc3ccccc3)NC(=O)[C@H](C)NC(=O)[C@H](C)NC(=O)[C@H](Cc3ccccc3C(=O)O)NC(=O)[C@H](CC(=O)O)NC1=O)NC(=O)[C@H](CC(C)(C)C)NC(=O)[C@H](CC(=O)O)NC2=O (single isomer, unassigned) [I-1661, Ac-PL3-Asp-Npg-B5-Asp-2COOHF-Ala-Ala-Phe-Leu-PyrS2-2F3MeF-BztA-Ser-NH2]
2 | 22 | 8 | CC(=O)N1CCC[C@]12CC=CCCCC1(CCCC=CCCCOC(=O)N3CC[C@@](C(=O)N[C@@H](Cc4ccsc4)C(=O)N[C@@H](Cc4csc5ccccc45)C(=O)N[C@@H](CO)C(N)=O)(C3)NC(=O)[C@H](Cc3ccccc3)NC(=O)[C@H](Cc3ccccc3)NC(=O)[C@H](C)NC(=O)[C@H](C)NC(=O)[C@H](Cc3ccccc3C(=O)O)NC(=O)[C@H](CC(=O)O)NC1=O)NC(=O)[C@H](CC(C)(C)C)NC(=O)[C@H](CC(=O)O)NC2=O (single isomer, unassigned) [I-1664, Ac-PL3-Asp-Npg-B5-Asp-2COOHF-Ala-Ala-Phe-Phe-PyrS2-3Thi-BztA-Ser-NH2]
3 | 17 | 9.7 | CC(=O)N1CCC[C@]12CC=CCCCC1(CCCC=CCCCOC(=O)N3CC[C@@](C(=O)N[C@@H](Cc4ccsc4)C(=O)N[C@@H](Cc4csc5ccccc45)C(=O)N[C@@H](CO)C(N)=O)(C3)NC(=O)[C@H](Cc3ccccc3)NC(=O)[C@H](Cc3ccccc3)NC(=O)[C@H](C)NC(=O)[C@H](C)NC(=O)[C@H](Cc3ccccc3C(=O)O)NC(=O)[C@H](CC(=O)O)NC1=O)NC(=O)[C@H](CC(C)(C)C)NC(=O)[C@H](CC(=O)O)NC2=O (single isomer, unassigned) [I-1665, Ac-PL3-Asp-Npg-B5-Asp-2COOHF-Ala-Ala-Phe-Phe-PyrS2-3Thi-BztA-Ser-NH2]
4 |  | > 20 | CC(=O)N1CCC[C@]12CC=CCCCC1(CCCC=CCCCCCC[C@@](C)(C(=O)N[C@@H](Cc3ccccc3)C(=O)N[C@@H](Cc3csc4ccccc34)C(=O)N[C@@H](CCC(N)=O)C(N)=O)NC(=O)[C@H](CCO)NC(=O)[C@H](Cc3ccccc3)NC(=O)[C@H](C)NC(=O)[C@H](C)NC(=O)[C@H](CCC(=O)O)NC(=O)[C@H](CC(=O)O)NC1=O)NC(=O)[C@H](CO)NC(=O)[C@H](CC(=O)O)NC2=O (stereo partly drawn) [I-1529, Ac-PL3-Asp-Ser-B5-Asp-Glu-Ala-Ala-Phe-Hse-S8-Phe-BztA-Gln-NH2]
5 |  | 14.7 | CCN(CC)C(=O)[C@H](CCC(N)=O)NC(=O)[C@H](Cc1csc2ccccc12)NC(=O)[C@H](Cc1ccsc1)NC(=O)[C@]12CCN(C1)C(=O)OCCCC=CCCCC1(CCCC=CC[C@]3(CCCN3C(C)=O)C(=O)N[C@@H](CC(=O)O)C(=O)N[C@@H](CC(C)(C)C)C(=O)N1)C(=O)N[C@@H](CC(=O)O)C(=O)N[C@@H](CN(CC(=O)O)CC(F)(F)F)C(=O)N[C@@H](C)C(=O)N[C@@H](C)C(=O)N[C@@H](Cc1ccccc1)C(=O)N[C@@H](CC(N)=O)C(=O)N2 (stereo partly drawn) [I-1641, Ac-PL3-Asp-Npg-B5-Asp-TfeGA-Ala-Ala-Phe-Asn-PyrS2-3Thi-BztA-Gln-NEt2]
6 |  | > 20 | CC(=O)N1CCC[C@]12CC=CCCCC1(CCCC=CCCCOC(=O)N3CC[C@@](C(=O)N[C@@H](Cc4ccsc4)C(=O)N[C@@H](Cc4csc5ccccc45)C(=O)N[C@@H](CCC(N)=O)C(N)=O)(C3)NC(=O)[C@H](CC(N)=O)NC(=O)[C@H](Cc3ccccc3)NC(=O)[C@H](C)NC(=O)C3(CC3)NC(=O)[C@H]([C@@H](C)O)NC(=O)[C@H](CC(N)=O)NC1=O)NC(=O)[C@H](CC(C)(C)C)NC(=O)[C@H](CC(=O)O)NC2=O (stereo partly drawn) [I-2492, Ac-PL3-Asp-Npg-B5-Asn-Thr-Cpg-Ala-Phe-Asn-PyrS2-3Thi-BztA-Gln-NH2]
7 | 97 |  | CC(=O)N1CCC[C@]12CC=CCCCC1(CCCC=CCCCOC(=O)N3CC(C(=O)N[C@@H](Cc4ccccc4C(F)(F)F)C(=O)N[C@@H](Cc4csc5ccccc45)C(=O)N[C@@H](CCC(N)=O)C(N)=O)(C3)NC(=O)[C@H](CC(C)C)NC(=O)[C@H](Cc3ccccc3)NC(=O)[C@H](C)NC(=O)C(C)(C)NC(=O)[C@H](Cc3cccc(C(=O)O)c3)NC(=O)[C@H](CC(=O)O)NC1=O)NC(=O)[C@H](CC(C)(C)C)NC(=O)[C@H](CC(=O)O)NC2=O (stereo partly drawn) [I-2614, Ac-PL3-Asp-Npg-B5-Asp-3COOHF-Aib-Ala-Phe-Leu-Az2-2F3MeF-BztA-Gln-NH2]
8 | 115 |  | CC(=O)N1CCC[C@]12CC=CCCCC1(CCCC=CCCCCOC(=O)N3CC(C(=O)N[C@@H](Cc4ccccc4C(F)(F)F)C(=O)N[C@@H](Cc4csc5ccccc45)C(=O)N[C@@H](CCC(N)=O)C(N)=O)(C3)NC(=O)[C@H](CC(C)C)NC(=O)[C@H](Cc3ccccc3)NC(=O)[C@H](C)NC(=O)C(C)(C)NC(=O)[C@H](Cc3cccc(C(=O)O)c3)NC(=O)[C@H](CC(=O)O)NC1=O)NC(=O)[C@H](CC(C)(C)C)NC(=O)[C@H](CC(=O)O)NC2=O (stereo partly drawn) [I-2615, Ac-PL3-Asp-Npg-B5-Asp-3COOHF-Aib-Ala-Phe-Leu-Az3-2F3MeF-BztA-Gln-NH2]
9 | 175 |  | CC(=O)N1CCC[C@]12CC=CCCCC1(CCCC=CCCCCOC(=O)N3CC(C(=O)N[C@@H](Cc4ccccc4C(F)(F)F)C(=O)N[C@@H](Cc4csc5ccccc45)C(=O)N[C@@H](CCC(N)=O)C(N)=O)(C3)NC(=O)[C@H](CC(C)C)NC(=O)[C@H](Cc3ccccc3)NC(=O)[C@H](C)NC(=O)C(C)(C)NC(=O)[C@H](Cc3cccc(C(=O)O)c3)NC(=O)[C@H](CC(=O)O)NC1=O)NC(=O)[C@H](CC(C)(C)C)NC(=O)[C@H](CC(=O)O)NC2=O (stereo partly drawn) [I-2616, Ac-PL3-Asp-Npg-B5-Asp-3COOHF-Aib-Ala-Phe-Leu-Az3-2F3MeF-BztA-Gln-NH2]
10 | 130 |  | CC(=O)N1CCC[C@]12CC=CCCCC1(CCCC=CCCCOC(=O)N3CC(C(=O)N[C@@H](Cc4ccsc4)C(=O)N[C@@H](Cc4csc5ccccc45)C(=O)N[C@@H](CCC(N)=O)C(N)=O)(C3)NC(=O)[C@H](CC(C)C)NC(=O)[C@H](Cc3ccccc3)NC(=O)[C@H](C)NC(=O)C(C)(C)NC(=O)[C@H](Cc3cccc(C(=O)O)c3)NC(=O)[C@H](CC(=O)O)NC1=O)NC(=O)[C@H](CC(C)(C)C)NC(=O)[C@H](CC(=O)O)NC2=O (stereo partly drawn) [I-2617, Ac-PL3-Asp-Npg-B5-Asp-3COOHF-Aib-Ala-Phe-Leu-Az2-3Thi-BztA-Gln-NH2]
11 | 77 |  | CC(=O)N1CCC[C@]12CC=CCCCC1(CCCC=CCCCCOC(=O)N3CC(C(=O)N[C@@H](Cc4ccsc4)C(=O)N[C@@H](Cc4csc5ccccc45)C(=O)N[C@@H](CCC(N)=O)C(N)=O)(C3)NC(=O)[C@H](CC(C)C)NC(=O)[C@H](Cc3ccccc3)NC(=O)[C@H](C)NC(=O)C(C)(C)NC(=O)[C@H](Cc3cccc(C(=O)O)c3)NC(=O)[C@H](CC(=O)O)NC1=O)NC(=O)[C@H](CC(C)(C)C)NC(=O)[C@H](CC(=O)O)NC2=O (stereo partly drawn) [I-2618, Ac-PL3-Asp-Npg-B5-Asp-3COOHF-Aib-Ala-Phe-Leu-Az3-3Thi-BztA-Gln-NH2]
12 | 36 |  | CC(=O)N1CCC[C@]12CC=CCCCC1(CCCC=CCCCCOC(=O)N3CC(C(=O)N[C@@H](Cc4ccsc4)C(=O)N[C@@H](Cc4csc5ccccc45)C(=O)N[C@@H](CCC(N)=O)C(N)=O)(C3)NC(=O)[C@H](CC(C)C)NC(=O)[C@H](Cc3ccccc3)NC(=O)[C@H](C)NC(=O)C(C)(C)NC(=O)[C@H](Cc3cccc(C(=O)O)c3)NC(=O)[C@H](CC(=O)O)NC1=O)NC(=O)[C@H](CC(C)(C)C)NC(=O)[C@H](CC(=O)O)NC2=O (stereo partly drawn) [I-2619, Ac-PL3-Asp-Npg-B5-Asp-3COOHF-Aib-Ala-Phe-Leu-Az3-3Thi-BztA-Gln-NH2]
